As a reminder, the melting point is the temperature of the solid-liquid transition. Take `COC(=O)C1(CC(CCCl)=C(C)C)C(=O)C=C(OC(C)C)CC1C` (centres undefined): the melting point lay within 76 to 77 °C.

Turning to `c1cncc(CNC2=Nc3ccccc3Nc3ncccc32)c1`, the melting point fell in the range of 192 to 194 °C.

`O=C(NCCc1ccccc1)c1ccccc1-c1ccccc1CNS(=O)(=O)c1cccc(F)c1` yielded a melting point of 153 °C.

Consider `CN(C)S(=O)(=O)NC(c1ccccc1)P(=O)(Oc1ccccc1)Oc1ccccc1` (centres undefined), for which the melting point fell in the range of 193 to 196 °C.

Turning to `CCc1c([N+](=O)[O-])c(C(N)=O)nn1C1CN(CC)C1`, the melting point lay in the range of 177 to 179 °C.

Compound `COc1cccc(NC(=O)C(F)(F)F)c1` came in with a melting point of 115 °C.

The compound `CCCCCCCCCCNC(=O)c1cc(C(=O)NCCCCCCCCCC)cc([N+](=O)[O-])c1` came in with a melting point of 115 to 116 °C.

`CCCCCCCCc1ccc(S(=O)(=O)Nc2nncs2)cc1` had a melting point of 123 to 124 °C.

With `O=CNCc1c(Cl)ccc2cc(Cl)cnc12`, the melting point is 110 °C.

`CC(C)(NC=O)C(=O)O` gave a melting point of 130 to 131 °C.

In the case of `O=S(=O)(c1ccccc1)n1c2ccc(CCc3ccccc3)cc2c2cc(Cl)cnc21`, the melting point fell in the range of 158 to 162 °C.

`O=C(Nc1ccc2ccc(Oc3ccccc3)nc2n1)C1=CSCCS1` registered a melting point of 240 °C.

On to `O=C(Cc1cccc2ccccc12)Nc1cc([C@H]2C[C@@H](Oc3nc4ccccc4o3)C2)[nH]n1`, for which the melting point came to 142 °C.

The compound `O=C1N[C@H](Cc2ccc(C(F)(F)F)cc2)[C@H](c2ccc(Cl)nc2)O1` (racemic) registered a melting point of 176 to 177 °C.

`Nc1c(Cl)ccc2c1C(=O)CO2`: the melting point is 160 °C.

The compound `CN1CCNC1=Nc1ccccc1N1CCOCC1` showed a melting point of 156 °C.

The compound `O=C1Nc2cccnc2N(CC#CCN2CCCC2)c2ccccc21` showed a melting point of 153 °C.

With `COc1ccc(C(=O)c2cn3c4c(cccc24)OCC3CN2CCOCC2)cc1` (centres undefined), the melting point lay within 209 to 214 °C.

For `N#Cc1ccc(Cn2cc(C=C3C(=O)NC(=O)NC3=O)c3ccccc32)cc1`, the melting point is more than 300 °C.

`COc1cccc(-c2cc3ccc(C#N)cc3o2)c1` returned a melting point of 148 to 150 °C.

Turning to `O=C(c1ccccc1)c1ccc(OCCCOc2ccc(C(=O)c3ccccc3)cc2)cc1`, the melting point is 146 to 148 °C.

Take `CONc1nc(Nc2ccc(C#N)cc2)nc(Oc2c(C)cc(C#N)cc2C)c1Br`: the melting point lay within 185 to 186 °C.

Compound `CCc1ccc(CCOc2ccc(NC(=O)N(C)C)cc2)nc1` had a melting point of 121 to 122 °C.

In turn, `CN(C)CCNC(=O)c1ccc(-c2nnc(CSCCOc3ccccc3)o2)cc1` came in with a melting point of 94 to 100 °C.

For the compound `CCCCOc1ccc(NC(=O)c2cnc(C(=O)O)c(OC)c2)cc1`, the melting point is 128 to 130 °C.

The compound `COC(=O)C(CC(C)C)NCC(=O)n1c(=O)cc(-c2ccccc2)c2cc(C(c3ccc(Cl)cc3)n3ccnc3)ccc21` (centres undefined) gave a melting point of 118 °C.

Take `Cc1nc(-c2ccc(O)cc2)sc1C`: the melting point fell in the range of 194 to 195 °C.

Take `O=S(=O)(CCCl)c1ccc(O)cc1`: the melting point was 72.5 to 73.5 °C.

Take `COc1ccnc(CCc2nc3cc(-c4ccoc4)cnc3[nH]2)c1`: the melting point fell in the range of 193 to 194 °C.

As for `CC(c1ccccc1N1CCCC1)C(C(N)=O)c1ccc(C(=O)O)cc1` (centres undefined), the melting point lay in the range of 155 to 157 °C.

`Cc1nc(-n2cn[nH]c2=O)sc1C(=O)NCc1cccnc1` registered a melting point of 278 to 279 °C.

`CN(C)C1(c2ccccc2)CCC(CNC(=O)N2CCC(c3c[nH]c4ccccc34)CC2)CC1` (centres undefined) returned a melting point of 104 to 107 °C.

Compound `Cc1cc(O)c(S(=O)Cc2ccccc2F)c(=O)o1` (centres undefined) came in with a melting point of 115 to 116 °C.

`COc1cc2c(=O)c(C#N)c[nH]c2cc1[N+](=O)[O-]` registered a melting point of 305 to 309 °C.

`CCCN(CCC)C(=O)Cc1cn(Cc2ccccc2Br)c2ccccc12` gave a melting point of 118 to 119 °C.

Compound `OC(Cn1cncn1)(c1ccc(F)cc1F)C(F)(F)F` (centres undefined) gave a melting point of 110 to 111 °C.

Compound `COCCCn1nnnc1-c1cc(-c2cccc(C(=O)OC)c2)c(OCc2ccccc2)cc1OCc1ccccc1` had a melting point of 105 to 108 °C.

As for `CC(C)N1CCC(C(C#N)(c2ccccc2)c2ccccc2)C1` (centres undefined), the melting point was 73 to 74 °C.

As for `CC1=C(C(=O)O)C(c2ccccc2[N+](=O)[O-])C(C(=O)OCCC#N)=C(C)N1` (centres undefined), the melting point lay within 132 to 134 °C.

In the case of `C=CCn1c(=O)c(C(=O)OCC)c(N)c2ccccc21`, the melting point was 132 to 134 °C.

`COc1ccc(-c2cccc(C(=O)NCCC#N)c2)c2cc(Cc3cccc(C(F)(F)F)c3)oc12` came in with a melting point of 126 to 127 °C.

For `COC(=O)C(c1ccccc1)C1CCN(c2ccc(N)cc2)CC1` (centres undefined), the melting point stood at 125 °C.

With `Cc1ccc(C2CCc3ccccc3O2)cc1` (centres undefined), the melting point is 94 °C.

Consider `COc1cc(OC)cc(C(=O)NC(NC(=NC#N)Nc2cccnc2OC)C(C)(Cl)Cl)c1` (centres undefined), for which the melting point fell in the range of 198 to 199 °C.

In turn, `COc1ccc(C(OCC2OC(n3cnc4c(=O)[nH]c(NC(=O)Cc5ccc(Cl)cc5)nc43)CC2O)(c2ccccc2)c2ccc(OC)cc2)cc1` (centres undefined) came in with a melting point of 150 to 155 °C.

`CCOc1cccc2oc(-c3ccccc3)cc(=O)c12` showed a melting point of 111 to 113 °C.

`CCOC(=O)C1=C(C)NN=C(CC)C1c1cccc(C#N)c1` (centres undefined) returned a melting point of 91 °C.

The compound `O=C(Cc1ccc2[nH]cc(CCN3C(=O)c4ccccc4C3=O)c2c1)NC1CCCCC1` gave a melting point of 175 to 176 °C.

`CCCn1nc2c(N)nc3ccccc3c2c1CCNC(C)=O` came in with a melting point of 185 to 186 °C.

`Cc1ccc(C(=S)Oc2nc[nH]c2C(N)=O)cc1` had a melting point of 219 °C.

On to `COc1ccc(C(=O)Cc2c(Cl)cncc2Cl)cc1OC1CCCC1`, for which the melting point was 119 to 120 °C.

In turn, `CC(C)NCCOc1ccc(-c2nc3ccccc3c(=O)[nH]2)nc1-c1ccc(S(C)(=O)=O)cc1` displayed a melting point of 188 to 189 °C.

`CCOC(=O)C(O)=Cc1ccc(S(=O)c2ccc(F)cc2)cn1` (centres undefined): the melting point was 148 to 150 °C.

As to `COC(=O)NNC(=O)Nc1ccccc1`, the melting point fell in the range of 154 to 155 °C.

`COc1ccc2c(c1)NC(=O)C2=Cc1[nH]c2c(c1CCC(=O)O)CCCC2` yielded a melting point of 263 to 266 °C.

`CCOC(=O)c1ccc(N=C(Nc2ccc(C(=O)OCC)cc2)c2ccc(-c3ccccc3)cc2)cc1` registered a melting point of 152 to 160 °C.

As for `Cc1c(OC(=O)c2ccccc2)ccc2c1OC(C)(C)CC2=O`, the melting point came out at 113 °C.

For the compound `Clc1cccnc1-c1ccc2[nH]nc(Nc3cc[nH]n3)c2c1`, the melting point was in the range of 218 to 220 °C.

On to `Cc1ccc(C(=O)N(C)C)cc1-c1nc(NCCN(C)C)nc2c1CNC(=O)N2c1c(F)cccc1F`, for which the melting point lay within 138 to 142 °C.

`O=C(O)c1cccc2c1CCc1cc(F)ccc1S2`: the melting point was in the range of 200 to 202 °C.

The compound `O=S(=O)(c1ccc(Cl)cc1)N1CCCC1c1ccc(F)cc1` (racemic) yielded a melting point of 118 °C.

In the case of `CCc1nn(C2CCCCC2)c2cc(C(=O)Nc3c(Cl)cncc3Cl)ccc12`, the melting point lay within 124 to 127 °C.

Compound `N#Cc1ccc(-c2ccc(-c3nc(N)nc(N)n3)cc2)cc1` came in with a melting point of more than 260 °C.

For the compound `CC(C)(C)c1cc(-c2cncn2CCCO)cc(C(C)(C)C)c1O`, the melting point was in the range of 166 to 167 °C.

Regarding `CC1(C)CCN(C(=O)Nc2cccnc2)c2cc(C#N)ccc21`, the melting point lay in the range of 183 to 185 °C.

The compound `Cc1ccc(=NC(=O)C(F)(F)F)n(Cc2ccc(Cl)s2)c1` returned a melting point of 170 °C.

With `CN1CCNCCNCCCNCCNCC1`, the melting point lay within 85 to 87 °C.

In turn, `Cc1c(Cc2ccc(C(C)C)cc2)c2c(c(C)c1NC(=O)CC(C)(C)C)C(O)C(C)(C)O2` (centres undefined) displayed a melting point of 244 to 245 °C.

`CC1=C(C(=O)OCC=Cc2ccccc2)C(c2ccccc2C(F)(F)F)c2c(ccnc2OC(C)C)N1` (centres undefined): the melting point lay in the range of 164 to 166 °C.

Compound `N#Cc1ncn(C2OC(COC(=O)c3ccccc3)C(OC(=O)c3ccccc3)C2OC(=O)c2ccccc2)c1C#N` (centres undefined) gave a melting point of 68 to 72 °C.

Regarding `O=C(O)c1ccc(OCCNC(=O)C2Cc3ccccc3N2S(=O)(=O)c2ccc(-c3ccc(F)cc3F)cc2)cc1F` (centres undefined), the melting point was in the range of 91 to 94 °C.

The compound `Nc1ccc(C#CC2CC2)c(F)c1` yielded a melting point of 82 to 86 °C.

With `Cc1ccc(-c2c3ccccc3nc3ccc(N(S(C)(=O)=O)S(C)(=O)=O)cc23)cc1`, the melting point was in the range of 217 to 219 °C.

Regarding `CC=CCn1c(C)c(C)c2cnnc(OCc3ccco3)c21`, the melting point lay in the range of 84 to 85 °C.

Regarding `c1ccc(COc2ccc3c(c2)N=C(NCc2cccnc2)c2ccccc2N3)cc1`, the melting point was 196 to 197 °C.

`O=c1oc2c(ccc3ccccc32)c2c1CNCC2` returned a melting point of 227 to 230 °C.

Turning to `O=C1CCN(C(=O)Cl)c2ccc(Cl)cc21`, the melting point lay within 114 to 116 °C.

The compound `CCSc1ccc(C(=O)O)c(C(F)(F)F)c1` registered a melting point of 134 °C.

As for `CCCc1nn(C)c2c(=O)[nH]c(Cc3ccc(S(=O)(=O)O)cc3)nc12`, the melting point is more than 350 °C.

On to `CC(=O)N1CCCC(C2=C(C#N)C(c3cccc4nonc34)c3c[nH]nc3N2)C1` (centres undefined), for which the melting point worked out at 219 °C.

With `CCCCc1ncc(CC(NC(=O)CCc2ccccc2)C(=O)O)n1Cc1ccccc1Cl` (centres undefined), the melting point fell in the range of 194 to 196 °C.

Compound `CCCCCCCCC(C)C(=O)NCl` (centres undefined) yielded a melting point of 56 to 57 °C.

`Cc1c(F)c(N2CCN(C)CC2)c(C)c2c1c(=O)c(C(=O)O)cn2C1CC1`: the melting point lay within 205 to 206 °C.

Compound `NC(=O)NCCS(=O)CC(O)CO` (centres undefined) yielded a melting point of 102 °C.

The compound `COc1ccccc1C(=O)c1sc(NCCc2ccc(Cl)cc2)nc1N` came in with a melting point of 150 to 151 °C.

Compound `C#Cc1c(-n2ccnc2)nc(C)nc1C(F)(F)F` yielded a melting point of 121 to 122 °C.

`Cc1ccc2c(c1)C(=O)N1CCN=C1N2N1CCCCC1` registered a melting point of 197 to 199 °C.

In turn, `Cc1cc(F)ccc1-c1c(O)c(C)c(-c2ccccn2)oc1=O` showed a melting point of 123 to 125 °C.

`CC(CCCC(=O)CCCC(C)(C(=O)O)c1ccccc1)(C(=O)O)c1ccccc1` (centres undefined) yielded a melting point of 44 to 46 °C.
